# Results: US10941122B2, “Diaminotriazine derivatives as herbicides” (BASF SE, priority 2014, dated 2021)
# What was measured:
# AMARE = experiment: greenhouse pre-emergence herbicidal test; type: in vivo, Amaranthus retroflexus; conditions: pre-emergence method, application rate 0.250 kg/ha, scale from 0 to 100
# Text: (§1) The seeds of the test plants were sown separately for each species. For the pre-emergence treatment, the active ingredients, which had been suspended or emulsified in water, were applied directly after sowing by means of finely distributing nozzles. The containers were irrigated gently to promote germination and growth and subsequently covered with transparent plastic hoods until the plants had rooted. This cover caused uniform germination of the test plants, unless this had been impaired by the active ingredients. Depending on the species, the plants were kept at 10-25° C. or 20-35° C., respectively. The test period extended over 2 to 4 weeks. During this time, the plants were tended, and their response to the individual treatments was evaluated. Evaluation was carried out using a scale from 0 to 100. 100 means no emergence of the plants, or complete destruction of at least the aerial moieties, and 0 means no damage, or normal course of growth. A moderate herbicidal activity is given at values of at least 60, a good herbicidal activity is given at values of at least 70, and a very good herbicidal activity is given at values of at least 85. The plants used in the greenhouse experiments were of the following species: [table]
# APESV = experiment: greenhouse pre-emergence herbicidal test; type: in vivo, Apera spica-venti; conditions: pre-emergence method, application rate 0.250 kg/ha, scale from 0 to 100
# Text: as §1
smiles,measurement,setting,value
"CC(C)(F)c1nc(N)nc(Nc2c(F)cccc2OC2CCCC2)n1 [Example 1, N2-[2-(Cyclopentoxy)-6-Fluoro-Phenyl]-6-(1-Fluoro-1-Methyl-Ethyl)-1,3,5-Triazine-2,4-Diamine]",herbicidal activity against AMARE,AMARE,very good (a very good herbicidal activity is given at values of at least 85)
same,herbicidal activity against APESV,APESV,good (a good herbicidal activity is given at values of at least 70)
